Source: the supplement of paper PMC10307832

How the values were obtained:
Test in all cases: relative viability (nuclei count vs DMSO), 5 days (fraction); higher = more cells survive
[1] = compound: C=CC(=O)N1CCC[C@@H](n2nc(-c3ccc(Oc4ccccc4)cc3)c3c(N)ncnc32)C1 [Ibrutinib] + Cc1nc(Nc2ncc(C(=O)Nc3c(C)cccc3Cl)s2)cc(N2CCN(CCO)CC2)n1 [Dasatinib] (partner 0.075 µM)
Summary of the method: (§1)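 Values are medians from duplicate plates. Each reflects relative viability, defined as the nuclei count of treated wells over that of vehicle wells. Lung cancer cell lines in 1536-well plates were pin-tool dosed one day after seeding with one drug alone or with a fixed anchor-drug dose plus five library-drug doses (not always all listed) in √10 steps, then fixed, stained and imaged at 4× after 5 days.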

[2] = compound: C=CC(=O)Nc1cc(-n2c(=O)ccc3cnc4ccc(-c5ccc(NS(C)(=O)=O)cc5)cc4c32)ccc1C [BMX-IN-1] + COc1cccc2cc(-c3nc([C@H]4CC[C@H](C(=O)O)CC4)n4ncnc(N)c34)[nH]c12 [OSI-027] (partner 0.5 µM)
Summary of the method: as §1

[3] = compound: C=CCc1cccc(/C=N/NC(=O)CN2CCN(Cc3ccccc3)CC2)c1O [PAC-1] + COc1cc2c(Oc3ccc(NC(=O)C4(C(=O)Nc5ccc(F)cc5)CC4)cc3F)ccnc2cc1OCCCN1CCOCC1 [Foretinib] (partner 0.25 µM)
Summary of the method: as §1

[4] = compound: C=CCc1cccc(/C=N/NC(=O)CN2CCN(Cc3ccccc3)CC2)c1O [PAC-1] + CS(=O)(=O)CCNCc1ccc(-c2ccc3ncnc(Nc4ccc(OCc5cccc(F)c5)c(Cl)c4)c3c2)o1 [Lapatinib] (partner 2 µM)
Summary of the method: as §1

Cell Line | relative viability ([1]; first compound 0.005 µM) | relative viability ([1]; first compound 0.01581 µM) | relative viability ([1]; first compound 0.05 µM) | relative viability ([1]; first compound 0.1581 µM) | relative viability ([1]; first compound 0.5 µM) | relative viability ([2]; first compound 0.02 µM) | relative viability ([2]; first compound 0.2 µM) | relative viability ([2]; first compound 0.6325 µM) | relative viability ([2]; first compound 2 µM) | relative viability ([3]; first compound 0.02 µM) | relative viability ([3]; first compound 0.06325 µM) | relative viability ([3]; first compound 0.2 µM) | relative viability ([3]; first compound 2 µM) | relative viability ([4]; first compound 0.02 µM) | relative viability ([4]; first compound 0.06325 µM) | relative viability ([4]; first compound 0.2 µM) | relative viability ([4]; first compound 2 µM)
201T | 0.58 | 0.517 | 0.6 | 0.58 | 0.608 | 0.805 | 0.985 | 0.798 | 0.824 | 0.998 | 1.22 | 1.15 | 1.11 | 0.98 | 1.01 | 1.1 | 1.05
A549 | – | – | – | – | – | – | – | – | – | 0.952 | 0.964 | 1.04 | 1.01 | 0.935 | 0.804 | 1 | 1.06
A-427 | 0.625 | 0.677 | 0.769 | 0.666 | 0.655 | 0.448 | 0.417 | 0.501 | 0.461 | 1.12 | 0.946 | 1.09 | 1.08 | 1.06 | 1.03 | 1.08 | 0.71
ABC-1 | 0.493 | – | 0.628 | 0.555 | 0.633 | 0.504 | 0.491 | 0.655 | 0.412 | 0.991 | 1.19 | 1 | 1.01 | 1.35 | 1.22 | 1.18 | 1.07
BEN | – | 0.291 | 0.232 | 0.273 | 0.314 | 0.319 | 0.282 | 0.294 | 0.31 | 0.68 | 0.651 | 0.589 | 0.678 | 0.629 | 0.604 | 0.671 | 0.75
CAL-12T | 0.363 | 0.295 | 0.354 | 0.475 | 0.24 | 0.712 | 0.665 | 0.659 | 0.679 | 1.15 | 1.1 | 0.978 | 1.08 | 0.604 | 0.788 | 0.665 | 0.599
COR-L23 | 0.614 | 0.396 | 0.497 | 0.513 | 0.544 | 1.01 | 0.945 | 1.01 | 0.754 | 1.01 | 1.02 | 0.902 | 0.951 | 1.06 | 0.963 | 0.833 | 0.928
COR-L 105 | 0.258 | 0.369 | 0.229 | 0.322 | 0.162 | 0.817 | 0.668 | 0.814 | 0.586 | 0.991 | 1.16 | 1.25 | 1.31 | 0.294 | 0.361 | 0.413 | 0.406
Calu-6 | – | – | – | – | – | – | – | – | – | 0.883 | 0.89 | 0.952 | 0.944 | 1.06 | 1.08 | 1.01 | 1.18
ChaGo-K-1 | 0.599 | 0.479 | 0.553 | 0.485 | 0.587 | 0.731 | 0.635 | 0.624 | 0.786 | 0.974 | 0.949 | 0.866 | 1.04 | – | – | – | –
EBC-1 | – | – | – | – | – | – | – | – | – | 0.105 | 0.0969 | 0.139 | 0.121 | 0.184 | 0.218 | 0.23 | 0.225
EKVX | 0.525 | 0.455 | 0.481 | 0.489 | 0.352 | 0.848 | 0.689 | 0.783 | 0.663 | 0.886 | 0.792 | 0.69 | 0.427 | 0.203 | 0.18 | 0.208 | 0.176
EMC-BAC-2 | 0.314 | 0.316 | 0.346 | 0.343 | 0.296 | 0.363 | 0.363 | 0.421 | 0.403 | 0.999 | 1.04 | 0.936 | 0.996 | 0.841 | 0.865 | 0.899 | 0.974
EPLC-272H | 0.274 | 0.294 | 0.284 | 0.279 | 0.188 | 0.262 | 0.261 | 0.323 | 0.314 | 0.605 | 0.683 | 0.68 | 0.721 | – | 1.2 | 0.978 | 0.942
H3255 | 0.35 | 0.346 | 0.276 | 0.292 | 0.242 | 0.635 | 0.658 | 0.578 | 0.518 | 0.925 | 0.814 | 0.883 | 0.89 | 0.268 | 0.256 | 0.246 | 0.269
HARA | 0.288 | 0.235 | 0.223 | 0.236 | 0.194 | 0.403 | 0.544 | 0.562 | 0.457 | 0.675 | 0.833 | 0.863 | 0.918 | 0.698 | 0.875 | 0.796 | 0.905
HCC-15 | 0.678 | 0.615 | 0.637 | 0.51 | 0.66 | 0.801 | 0.708 | 0.698 | 0.583 | 0.993 | 1.08 | 0.985 | 1.04 | 0.907 | 0.945 | 0.814 | 0.861
HCC-44 | – | – | – | – | – | 0.617 | 0.515 | 0.56 | 0.474 | – | – | – | – | 1.06 | 1.04 | 0.962 | 1.03
HCC-78 | 0.309 | 0.402 | 0.304 | 0.312 | 0.267 | 0.336 | 0.372 | 0.371 | 0.376 | 0.522 | 0.591 | 0.634 | 0.589 | 0.753 | 0.822 | 0.657 | 1.05
HCC-366 | 0.734 | 0.569 | 0.633 | 0.538 | 0.597 | 1.06 | 1.14 | 1.13 | 1.12 | 0.903 | 0.925 | 0.899 | 0.989 | 1.07 | 1.03 | 1.06 | 0.976
HCC-827 | 0.358 | 0.277 | 0.206 | 0.262 | 0.143 | 0.785 | 0.968 | 0.828 | 0.778 | 1.11 | 1.03 | 0.964 | 1.03 | 0.193 | 0.194 | 0.186 | 0.198
